Source: PMC5584973, “Characterization of novel bangle lectin from Photorhabdus asymbiotica with dual sugar-binding specificity and its effect on host immunity” (PLoS Pathogens, 2017)
Read-outs that look alike come from different tables or passages of the source.

What was measured:
[1] = system: phenoloxidase (PO) in haemolymph of G. mellonella; assay: Phenoloxidase activity in insect haemolymph; format: biochemical, Galleria mellonella; settings: for PHL activation of melanisation in the presence of sugar: 0.2M sugar, PHL 475 μg
Procedure: (§1) Larvae of the greater wax moth, Galleria mellonella, were reared on an artificial diet at 30 ± 1°C in constant darkness. Haemolymph was collected from the seventh instar larvae by cutting a proleg and pooling the haemolymph into a tube containing phenylthiourea (1 mg/ml in PBS; haemolymph mixed with phenylthiourea in the ratio 9:1 [v/v]) or used directly for the determination of phenoloxidase activity.
PO activity was measured according to previously published studies. Haemolymph of G. mellonella (5 μl) was collected directly to 95 μl of PHL (475 μg in PBS for all experiments except dose-dependence assay where different dilutions of PHL were used), PLL (475 μg in PBS), BSA (475 μg in PBS) or PBS (pH 7.4) and incubated for 10 min at room temperature. After incubation, 40 μl of reaction mixture was transported to the microplate well and 160 μl of 3,4-dihydroxy-DL-phenylalanine (3 mg/ml in PBS) was added as substrate. The reaction was allowed to proceed for 30 min, and absorbance was measured in 2-min intervals at 492 nm with a Sunrise reader (Tecan, Switzerland). PO activity was expressed as linear increase in absorbance per minute. For the inhibition assay, PHL was pre-incubated with 0.2M L-Fuc or Me-α-L-Fuc for 10 min at room temperature prior to mixing with haemolymph.

G. mellonella haemolymph = assay: Antimicrobial activity of insect haemolymph against E. coli K12; design: species or system Galleria mellonella; settings: 320 μg protein
Procedure: as §1
(§2) The antimicrobial activity of human sera and insect haemolymph was measured luminometrically using the bioluminescent Gram-negative bacteria Escherichia coli K12 [59]. We have modified previously published protocol to measure the effect of PHL [60]. […] After treatment, 120 μl of bacteria working solution containing 100,000 E. coli K12 cells in PBS (pH 7.0) was added to the reaction well and the luminescence signal was recorded with a Chameleon V luminometer (Hidex, Finland) in counts per second (CPS). Reaction wells with PHL, BSA or PBS in an 80 μl volume of the same concentrations and pH as above were measured with E. coli K12 in each experiment as viability controls, not affected by human serum nor haemolymph. The luminescence produced by E. coli K12 corresponds to the bacterial viability. The antimicrobial effect of human sera and haemolymph was determined as time elapsed until the luminescence signal decreased under 1000 or 5000 CPS, respectively. […]

whole human blood = assay: Oxidative burst (ROS production) in human blood; format: cell-based; settings: 125 μg protein
Procedure: ROS production was measured according to previously published work in whole human blood within 15 min of sampling. The fresh human blood (2 μl diluted 40x in HBSS; 0.137 M NaCl, 5.4 mM KCl, 0.44 mM KH2PO4, 0.25 mM Na2HPO4, 4.2 mM NaHCO3, 1.0 mM MgSO4, 1.3 mM CaCl2, 5.55 mM glucose; pH 7.4) was mixed with 25 μl of PHL (125 μg in PBS for all experiments except dose-dependence assay where different dilutions of PHL were used), BSA (125 μg in PBS) or PBS (pH 7.4) and incubated for 10 min at 37°C or room temperature. After incubation, 25 μl of the luminophore (10 mM luminol) and 25 μl of activator zymosan A (2.5 mg/ml in HBSS) was added to activate ROS production in phagocytes. To detect the constitutive production of ROS, zymosan was replaced with the same volume of HBSS. Luminescence was recorded with a Chameleon V luminometer (Hidex, Finland) for two hours at 37°C or room temperature, and the integrals of reactions were compared. Results from experimental treatments (incubation of blood with PHL and BSA) were normalised to the integral of the oxidative response in the respective blood sample with PBS.

human serum = assay: Antimicrobial activity of human serum against E. coli K12; settings: 320 μg protein
Procedure: Samples of human blood were collected from healthy donors to tubes without anticoagulant and anonymized prior to experiments. The blood was allowed to clot for at least 10 min, centrifuged at 2,000 g, 10 min to remove the clot and the collected serum was used immediately for subsequent analysis. The serum was analysed within two hours after blood collection in all experiments.
as §2

PHL [2] = target: T1, PHL (Photorhabdus asymbiotica, UniProt C7BLE4); assay: SPR inhibition of PHL binding to immobilized L-fucoside
Procedure: (§3) SPR inhibition experiments were performed using the same conditions described above. The PHL lectin (0.25 μM final concentration) was mixed with various concentrations of inhibitors (1M – 0.01 mM) and injected onto the sensor chip. Pure PHL lectin was used as a control (0% inhibition). The response of the lectin bound to the sugar surface at equilibrium was plotted against the concentration of inhibitor in order to determine IC50.

PHL [3] = assay: as above; design: species or system Photorhabdus asymbiotica; settings: IC50 from SPR inhibition, PLL data ref 21
Procedure: as §3

PHL [4] = target: T1, PHL; assay: Isothermal titration calorimetry (ITC); format: binding
Procedure: (§4) ITC experiments were performed using an ITC200 calorimeter (Malvern, England). Experiments were performed at 25°C in buffer A (300 mM NaCl, 20 mM Tris/HCl, pH 7.5). Carbohydrate ligands were dissolved in the same buffer. Protein in the cell (50 μM) was titrated by consecutive addition (2 μl) of the ligand in the syringe (1.5–50 mM) while stirring at 1000 rpm. Control experiments performed with injections of buffer in the protein solution yielded insignificant signals. Integrated heat effects were analyzed by nonlinear regression using a single-site binding model in Origin 7 (Microcal). The experimental data fitted to a theoretical titration curve brought up stoichiometry (n), association constant Ka, and the enthalpy of binding ΔH. The other thermodynamic parameters such as free energy (ΔG) and […] (ΔS) were calculated from the equation ΔG = ΔH-TΔS = -RTlnKa, where T is the absolute temperature and R is the molar gas constant (8.314 J.mol^-1.K^-1). At least two independent titrations were carried out for each tested ligand.

PHL [5] = assay: Isothermal titration calorimetry (ITC); format: binding, Photorhabdus asymbiotica; settings: ITC, PLL data ref 21
Procedure: as §4

PHL [6] = target: T1, PHL; assay: Haemagglutination inhibition assay with PHL; format: cell-based; settings: for Potency towards L-fucose: haemagglutination inhibition, from MIC; for MIC (minimal inhibitory concentration) of haemagglutination by PHL: microscopy
Procedure: A haemagglutination inhibition assay was performed to determine the specificity and semi-quantitative affinity of PHL interaction with the saccharides. A wide range of monosaccharides at concentrations from 50 mM to 0.5 mM were used for determining the lowest inhibiting concentration. A 20 μl mixture composed of 5 μl PHL (2mg/ml), 5 μl saccharide, and 10 μl 10% RBCs was prepared (all components of reaction were in PBS buffer). After 10 minutes, the reaction was observed using a Levenhuk microscope.

[7] = ITC at 25°C, stoichiometry fixed to 3, read-out: KD (n = 3)
[8] = ITC at 25°C, stoichiometry fixed to 4, read-out: KD (n = 4)

T1 sequence (C7BLE4 1-369): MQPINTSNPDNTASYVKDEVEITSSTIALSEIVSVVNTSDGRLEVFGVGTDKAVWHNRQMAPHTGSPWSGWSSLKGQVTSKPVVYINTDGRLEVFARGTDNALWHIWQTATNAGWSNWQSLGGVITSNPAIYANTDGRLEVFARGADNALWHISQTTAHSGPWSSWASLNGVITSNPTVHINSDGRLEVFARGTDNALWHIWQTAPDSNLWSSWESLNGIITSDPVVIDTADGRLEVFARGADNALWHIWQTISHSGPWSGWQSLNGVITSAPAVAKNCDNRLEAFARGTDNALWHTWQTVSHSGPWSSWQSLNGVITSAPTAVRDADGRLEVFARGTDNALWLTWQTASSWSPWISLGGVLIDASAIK

Row | Compound | effect on PO activity (melanisation) ([1]; G. mellonella haemolymph, 475 μg for BSA, PLL) | effect on antimicrobial activity against E. coli K12 (G. mellonella haemolymph) | ROS production (integral of luminescence) (whole human blood; blood challenged with activator zymosan A) | constitutive ROS production (integral of luminescence) (whole human blood; whole human blood A/B/O, without activator, 2 hours) | effect on antimicrobial activity against E. coli K12 (human serum) | IC50 (PHL [2]) [µM] | fold better inhibition effect for PHL than for PLL (PHL [3]) [fold] | PHL activation of melanisation in the presence of sugar [1] | Kd (PHL [4]; [7]) [µM] | Kd (PHL [4]; [8]) [µM] | fold higher affinity of PHL than PLL (PHL [5]) | Potency towards L-fucose (PHL [6]) | MIC (minimal inhibitory concentration) of haemagglutination by PHL (PHL [6]) [µM] | IC50 (PHL [2]; SPR, PHL 0.25 μM binding to immobilized L-fucoside, 25°C, read-out: IC50) [µM] | binding stoichiometry (PHL [4]; ITC, fitted) | Kd (PHL [4]; ITC, stoichiometry not fixed, read-out: equilibrium dissociation constant) [µM]
1 | bovine serum albumin [BSA] | did not have any effect | not able to block the effect of antimicrobial factors | 5.3±1.3 x 10^6 CPS*min | 26.9±16.9 x 10^3 CPS*min | not able to block the effect of antimicrobial factors | – | – | – | – | – | – | – | – | – | – | –
2 | C[C@H](O)[C@@H](O)[C@@H](O)[C@H](O)C=O [L-Fuc, L-fucose] | – | – | – | – | – | 360 | 15 | inhibited | 1400 ± 30 | 1330 ± 40 | approx. 4 fold | 1 | 3125 | – | – | –
3 | CO[C@@H]1O[C@@H](C)[C@@H](O)[C@@H](O)[C@@H]1O [Me-α-L-Fuc, Methyl-α-L-fucopyranoside] | – | – | – | – | – | – | 42 | inhibited | 260 ± 40 | 210 | approx. 4 fold | 8 | 390 | 40 | approx. 2.9 | 270
